{
  "source": "paper PMC4937332",
  "about": "(2016)",
  "test_system": "T8A7 (in solution, with anchor) (RNA, riboswitch) GGGGAACAAACAUUCAAAAUAAUAACACAAGAUAUGAGCGAAUGACAGCAAGGGGAGAGACCUGACCGAAAACCUCGGGAUACAGGCGCCGAAGGAGCAAACUGCGGAGUGAAUCUCUCAGGCAAAAGAACUCUUGCUCGACGCAACUCUGGAGAGUGUUUGUGCGGAUGCGCAAACCACCAAAGGGGACGUCUUUGCGUAUGCAAAGUAAACUUUCAGGUGCCAGGACAGAGAAGAAGGACGGGUCCAGCUGCUUCGGCAGCUGUUGAGUAGAGUGUGAGCUUCUCU",
  "assay": "in-solution fluorescence titration, Spinach/DFHBI-1T turn-off",
  "conditions": "125 mM K+, 20 mM Mg2+; apparent; 50 mM Tris pH 8.31, 20 µM DFHBI-1T",
  "data": [
    {"smiles": "NCC(=O)O", "values": [
      {"measurement": "KD", "value": "71 ± 4", "unit": "µM"}
    ]}
  ]
}
